From patent US10912819B2, “Neuroprotective peptides derived from activity-dependent neuroprotective protein for treatment of neurological diseases” (priority 2016, dated 2021)

Key:
Adnp^+/− mice [1] = test: Grip strength test; format: in vivo; settings: male mice, treatment from 2 months of age, 0.5 μg NAP/mouse/day intranasal in DD, 5 weeks; p<0.05
Description: The grip strength test measures forelimbs muscle strength using the UgoBasile 47200-Grip-Strength Meter. Each animal was tested five times and the peak force of each mouse was recorded. Data are expressed as mean±SEM.

Adnp^+/− mice [2] = test: MRI diffusion tensor imaging of chronically treated brains; format: in vivo; settings: NAP in CB vs CB-treated Adnp^+/− mice
Description: MRI was performed on a 7.0 T/30 spectrometer (Bruker, Rheinstetten, Germany) using a volume coil for excitation and a rat quadrature coil for acquisition. The MRI protocols included coronal T2 and diffusion tensor imaging (DTI). T2 weighted images obtained with RARE sequence, with repetition time=3000 msec and echo time=49 msec, RARE factor 8, 4 averages, field of view of 2×2 cm, matrix dimensions of 256×256 and 24 slices of 0.5 mm thickness with no gap. The 24 coronal sections were used for volumetric analysis of the whole brain, Lateral ventricle and Hippocampus. DTI was obtained using a diffusion-weighted (DW) spin-echo echo-planar-imaging (EPI) pulse sequence with the following parameters: TR/TE=4000/25 ms, Δ/δ=10/4.5 ms, 4 EPI segments and 32 non-collinear gradient directions with a single b value (1000 sec/mm^2) and two images with b value of 0 sec/mm2 (referred to as b0). Geometrical parameters were: 24 slices of 0.5 mm thickness, matrix size of 128×128 and FOV of 20 mm^2). The imaging protocol was repeated 3 times for signal averaging and to compensate for acquisition where significant head motion was observed. Image analysis included DTI analysis of the DW-EPI images to produce the FA, radial, and axial diffusivity indexed maps.

CC[C@H](C)[C@H](NC(=O)[C@H](CO)NC(=O)[C@@H](NC(=O)[C@@H]1CCCN1C(=O)[C@H](C)NC(=O)[C@@H](N)CC(N)=O)C(C)C)C(=O)N1CCC[C@H]1C(=O)N[C@@H](CCC(N)=O)C(=O)O [NAP]
forelimbs muscle strength (grip force) (Adnp^+/− mice [1]): significantly improving it | hippocampal mean diffusivity (MD) (Adnp^+/− mice [2]; hippocampal area −1.84 mm from Bregma): although insignificantly, was reduced | hippocampal fractional anisotropy (FA) (Adnp^+/− mice [2]; hippocampal area −2.34 mm from Bregma, p<0.05): significantly reduced
